Activity calls are given as the source filed them.
Columns and labels:
Beta-lactamase [1] = target: Beta-lactamase (Salmonella choleraesuis (strain SC-B67), UniProt Q5J463); assay: Epi-absorbance-based counterscreen for selective VIM-2 inhibitors: dose response biochemical high throughput screening assay to identify inhibitors of TEM-1 serine-beta-lactamase.
Beta-lactamase [2] = target: T1, Beta-lactamase (Pseudomonas aeruginosa, UniProt Q79MP6); assay: inhibition of IMP-1 beta-lactamase activity – biochemical, epi-absorbance, selectivity assay for VIM-2 inhibitor project, dose response (AID 1920)
Beta-lactamase [3] = target: T1, Beta-lactamase; assay: […] counterscreen for selective VIM-2 inhibitors: dose response biochemical high throughput screening assay to identify inhibitors of IMP-1 metallo-beta-lactamase.
[4] = potency of ADAM10 substrate cleavage blockers – biochemical, QFRET, dose response (AID 743254);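 note: ADAM10 enzyme with the DM2 quenched FRET peptide as substrate; EDANS fluorescence gain as the protease cuts the substrate; inhibitor potency against ADAM10 proteolytic activity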
[5] = target: Disintegrin and metalloproteinase domain-containing protein 17 (Homo sapiens, UniProt P78536); assay: inhibition of ADAM17 substrate cleavage – biochemical, quenched FRET substrate, counter-screen for ADAM10 exosite inhibitor project, dose response (AID 743253)
Major prion protein = Major prion protein (Homo sapiens, UniProt P04156); format: functional, cell-based
cells [6] = assay: cells
[7] = A cytotoxicity screen of small molecule inhibitors of the PhoP region in Salmonella typhi identified in the primary screen. [Related pubchem assays: 1850, 1864, 1985 ]; format: functional
Vero = assay: viability loss in Vero cells – cell-based, plate reader, cherry-pick samples, cytotoxicity control, dose response (AID 687020); format: functional; conditions: Chlorocebus sabaeus
[8] = target: Fructose-bisphosphate aldolase (Mycobacterium tuberculosis, UniProt P9WQA3); assay: Fluorescence-based biochemical high throughput dose response assay for inhibitors of the fructose-bisphosphate aldolase (FBA) of M. tuberculosis.; format: functional
Galanin receptor type 3 = Galanin receptor type 3 (Homo sapiens, UniProt O60755); assay: Fluorescence-based cell-based primary high throughput dose response assay to identify antagonists of the Galanin Receptor 3 (GalR3).; format: functional
cells [9] = format: functional, cell-based; conditions: HEK-CNG
[10] = target: Heat shock protein HSP 90-alpha (Homo sapiens, UniProt P07900); assay: Luminescence-based dose response biochemical high throughput screening assay for inhibitors of the Heat Shock Protein 90 (HSP90). [Related pubchem assays: 1831 (Summary AID.), 1846 (Confirmation screen.), 1789 (Primary screen.)]
[11] = Late stage assay provider results from the probe development effort to identify selective inhibitors of heat shock protein 90 (HSP90): Absorbance-based cell proliferation assay in SKBR3 cells.; format: functional; conditions: SK-BR-3
[12] = Late stage assay provider results from the probe development effort to identify selective inhibitors of heat shock protein 90 (HSP90): Absorbance-based cell proliferation assay in MCF7 cells.; format: functional
[13] = target: Dual specificity tyrosine-phosphorylation-regulated kinase 1A (Rattus norvegicus, UniProt Q63470); format: biochemical, Homo sapiens
[14] = viability loss in HepG2 hepatoma cells – cell-based, ATP luminescence, cherry-pick, activator set 2, cytotoxicity control, dose response (AID 1053143); format: functional
Paired box protein Pax-8 = Paired box protein Pax-8 (Homo sapiens, UniProt Q06710); assay: PAX8 transcriptional activity inhibition in RMG-I – RMG-I cells, luciferase, cherry-pick, dose response (AID 687027); format: functional, cell-based;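 note: luciferase reporter driven by Pax8 target thyroperoxidase promoter measured by SteadyGlo luminescence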
[15] = OVCAR-3 cell viability loss – plate reader, dry powder samples, PAX8 inhibitor project, dose response (AID 743044); format: functional, cell-based
[16] = IGROV1 cell killing – plate reader, dry powder samples, PAX8 inhibitor project, dose response (AID 743043); format: functional, cell-based; conditions: IGROV-1
[17] = OVCAR8 cell viability loss – plate reader, dry powder samples, PAX8 project, dose response (AID 743197); format: functional, cell-based; conditions: OVCAR-8
[18] = A2780 cell killing – plate reader, dry powder samples, cytotoxicity control, dose response (AID 743046); format: functional, cell-based
[19] = CMV-driven luciferase expression suppression in HEK293 – cell-based, luminescence, dry powder, counter-screen for Pax8 inhibitor project, dose response (AID 743020); format: functional
[20] = general cell-killing toxicity readout – plate reader, dry powder samples, cytotoxicity control for PAX8 inhibitor project, dose response (AID 743021); format: functional, cell-based
[21] = target: Endoplasmic reticulum aminopeptidase 1 (Homo sapiens, UniProt Q9NZ08); assay: inhibition of human ERAP1 enzyme activity – biochemical, cherry-pick, set 2, plate reader, dose response (AID 743314)
[22] = Luminescence Cell-Based Dose Retest to Confirm Inhibitors of Cancer Stem Cells. [Related pubchem assays (depositor defined):AID2717, AID2721]; format: functional; conditions: Homo sapiens
[23] = Counterscreen for […] of the human trace amine associated receptor 1 (TAAR1): Fluorescence-based cell-based high throughput dose response assay to identify nonselective Ga16 agonists.; format: functional
[24] = Counterscreen for antagonists of the human trace amine associated receptor 1 (hTAAR1): Fluorescence-based cell-based high throughput dose response assay to identify nonselective Ga16 antagonists.; format: functional
[25] = Late stage assay provider results from the probe development effort to identify inhibitors of the Plasmodium falciparum M17 Leucine Aminopeptidase (M17LAP): radiolabel-based cell-based dose response assay to identify compounds that inhibit P. falciparum growth in RBCs Set 2.; format: functional
[26] = luciferase reporter signal suppression in cells – H4 neuroglioma cells, luminescence, dose response (AID 1990); format: functional, cell-based
[27] = luciferase reporter signal reduction – luminescence, H4-C neuroglioblastoma cells, dose response (AID 2458); format: functional, cell-based;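 note: H4 neuroglioblastoma cells stably carrying a luciferase reporter gene fusion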
cells [28] = format: functional, cell-based
[29] = alpha-synuclein stem-loop luciferase translation blockers – H4 neuroglioma cells, luminescence, confirmation (AID 1988); format: functional, cell-based
[30] = alpha-synuclein stem-loop translation blockers – luminescence, H4 neuroglioblastoma cells, dose confirmation, confirmation (AID 2454); format: functional, cell-based;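 note: H4 neuroglioblastoma cells carrying an alpha-synuclein 5'UTR luciferase reporter; potency for inhibition of the luciferase signal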
[31] = HEK-293T viability loss after treatment – luminescence, T-cell screen hits, cytotoxicity control for TCR NF-kB inhibitor project, dose response (AID 489026); format: functional, cell-based;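 note: cells exposed to compound about 14 hours before the viability readout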
P388/ADR = assay: cells; format: functional; conditions: Mus musculus
SN12K1 = assay: cells; format: functional; conditions: Homo sapiens
P388 = assay: cells; format: functional; conditions: Mus musculus
[32] = rescue of ΔF508 CFTR function, airway epithelium – human bronchial epithelial cells, plate reader, cherry-pick, two tests, dose response (AID 743267); format: functional, cell-based

Cc1c(C)c2c(OCC(=O)N[C@@H](C)C(=O)O)cc3c(c2oc1=O)CCC(C)(C)O3
IC50 (Beta-lactamase [1]): > 59.6 µM (inactive) | IC50 (Beta-lactamase [2]): > 59.6 µM (inactive) | IC50 (Beta-lactamase [3]): > 59.6 µM (inactive)

O=C(NCCc1nc2ccccc2[nH]1)/C(=C/c1ccc2c(c1)OCO2)NC(=O)c1ccc(Cl)cc1Cl
IC50 [4]: > 69.5 µM (inactive) | IC50 [5]: > 69.5 µM (inactive)

O=C(O)c1cc(-c2cccnc2)nc2ccc(Br)cc12
IC50 (Major prion protein): 13.8 µM (inactive) | IC50 (cells [6]): > 138 µM (inactive)

O=C(Nc1ccc(Cc2ccncc2)cc1)c1cccs1
EC50 [7]: > 50 µM (active) | AC50 (Vero): 26.3 µM (active)

C=CCn1c(-c2ccc(N)cc2)nc2ccccc21
IC50 [8]: > 0.37 µM (active)

O=c1c(Cl)c(NCC2CCCO2)cnn1C12CC3CC(CC(C3)C1)C2 (stereo not drawn)
IC50 (Galanin receptor type 3): > 29.9 µM (inactive) | EC50 (cells [9]): > 29.9 µM (inactive)

COC(=O)c1ccc2nc(NC(=O)C3CC3)sc2c1
IC50 [10]: 3.82 µM (active) | IC50 [11]: > 100 µM (inactive) | IC50 [12]: 49.2 µM (inactive)

C=CS(=O)(=O)c1c2cc(OC)ccc2nc2ccc(OC)cc12
AC50 [13]: 0.682 µM (active) | AC50 [14]: 25.4 µM (active)

C[C@@H]1CN([C@@H](C)CO)C(=O)c2cc(NC(=O)Nc3ccc(C(F)(F)F)cc3)ccc2O[C@@H](C)CCCCO[C@H]1CN(C)Cc1ccncc1
AC50 (Paired box protein Pax-8): 8.41 µM (active) | AC50 [15]: 29.5 µM (active) | AC50 [16]: 53.7 µM (active) | AC50 [17]: 53.8 µM (active)

C[C@@H]1CN([C@@H](C)CO)S(=O)(=O)c2ccc(C#CC3CCCC3)cc2O[C@H]1CN(C)Cc1cccnc1
AC50 (Paired box protein Pax-8): 8.33 µM (active) | AC50 [18]: 15 µM (active) | AC50 [19]: 47.5 µM (active) | AC50 [15]: 25.7 µM (active) | AC50 [20]: 57.1 µM (active)

O=C(NCC1CC1)[C@@H]1[C@@H](CO)[C@@H]2Cn3c(ccc(/C=C/c4ccccc4)c3=O)[C@H]1N2C(=O)C1CC1
AC50 [21]: 14.7 µM (active)

Cc1cc(Br)c(OCc2ccc(C(=O)N/N=C/c3ccc[nH]3)cc2)c(Br)c1
AC50 [22]: 0.228 µM (active) | EC50 [23]: > 29.9 µM (inactive) | IC50 [24]: > 29.9 µM (inactive) | AC50 (Paired box protein Pax-8): 0.693 µM (active) | AC50 [20]: 59.4 µM (active)

O=C(Cc1ccc(OCc2ccccc2)cc1)NO
IC50 [25]: 4.7 µM (active)

CC(=O)O[C@H]1C(=O)[C@@]2(C)[C@H]([C@H](OC(=O)c3ccccc3)[C@]3(O)C[C@H](OC(=O)[C@H](O)[C@@H](NC(=O)c4ccccc4)c4ccccc4)C(C)=C1C3(C)C)[C@]1(OC(C)=O)CO[C@@H]1C[C@@H]2O [PACLITAXEL]
EC50 [26]: 10.6 µM (active) | EC50 [27]: 0.039 µM (active) | EC50 (cells [28]): 0.086 µM (active) | EC50 [29]: < 0.1 µM (active) | EC50 [30]: 0.069 µM (active) | IC50 [31]: > 80 µM (inactive) | GI50 (P388/ADR): 0.605 µM (active) | GI50 (SN12K1): 0.00327 µM (active) | GI50 (P388): 0.00569 µM (active) | AC50 [32]: 3.59 µM (active)

Reference: ChEMBL document CHEMBL1201862, “PubChem BioAssay data set” (2004)
